# According to publication PMC5218480 (PLoS ONE, 2017):
# Tested on: MV-4-11 cells
# Experiment: Gene expression microarray analysis (Affymetrix PrimeView) and GSEA
# Format: cell-based, human
# Design: RFU PODN (11730768_x_at) / Fold change /veh PODN (11730768_x_at) / RFU LINC00158 (11744669_a_at) / Fold change /veh LINC00158 (11744669_a_at) / RFU DUSP10 (11751237_a_at) / Fold change /veh DUSP10 (11751237_a_at) / RFU ID3 (11757404_x_at) / Fold change /veh ID3 (11757404_x_at) / RFU PLEKHG5 (11737974_s_at) / Fold change /veh PLEKHG5 (11737974_s_at) / RFU LRRC4B (11730491_at) / Fold change /veh LRRC4B (11730491_at) / RFU GIMAP4 (11747438_a_at) / Fold change /veh GIMAP4 (11747438_a_at) / RFU KRT8 (11758183_x_at) / Fold change /veh KRT8 (11758183_x_at) / RFU CNN1 (11734310_a_at) / Fold change /veh CNN1 (11734310_a_at) / RFU VPS37D (11726825_at) / Fold change /veh VPS37D (11726825_at) / RFU C10orf10 (11716522_x_at) / Fold change /veh C10orf10 (11716522_x_at) / RFU KIR2DL2 /// KIR2DL4 /// KIR2DL5A /// KIR2DL5B /// KIR2DS1 /// KIR2DS2 /// KIR2DS3 /// KIR2DS4 /// KIR3DL3 /// KIR3DL3 /// KIR3DS1 (11738374_at) / Fold change /veh KIR2DL2 /// KIR2DL4 /// KIR2DL5A /// KIR2DL5B /// KIR2DS1 /// KIR2DS2 /// KIR2DS3 /// KIR2DS4 /// KIR3DL3 /// KIR3DL3 /// KIR3DS1 (11738374_at) / RFU C1QL1 (11718748_at) / Fold change /veh C1QL1 (11718748_at) / RFU TMPRSS4 (11747572_a_at) / Fold change /veh TMPRSS4 (11747572_a_at) / RFU HAMP (11756126_x_at) / Fold change /veh HAMP (11756126_x_at) / RFU RNFT2 (11725882_a_at) / Fold change /veh RNFT2 (11725882_a_at) / RFU NR4A2 (11747474_a_at) / Fold change /veh NR4A2 (11747474_a_at) / RFU ABCC12 (11746883_a_at) / Fold change /veh ABCC12 (11746883_a_at) / RFU TMEM136 (11760407_x_at) / Fold change /veh TMEM136 (11760407_x_at) / RFU CLDN22 /// WWC2 (11732394_at) / Fold change /veh CLDN22 /// WWC2 (11732394_at) / RFU HLA-DPB1 (11760878_x_at) / Fold change /veh HLA-DPB1 (11760878_x_at) / RFU SPINT1 (11716480_a_at) / Fold change /veh SPINT1 (11716480_a_at) / RFU GAP43 (11754022_s_at) / Fold change /veh GAP43 (11754022_s_at) / RFU A4GNT (11735810_at) / Fold change /veh A4GNT (11735810_at) / RFU PRB3 (11715151_x_at) / Fold change /veh PRB3 (11715151_x_at) / RFU TUBB4B (11761932_at) / Fold change /veh TUBB4B (11761932_at) / RFU CAPN14 (11732068_a_at) / Fold change /veh CAPN14 (11732068_a_at) / RFU TMCC2 (11721928_a_at) / Fold change /veh TMCC2 (11721928_a_at) / RFU IRGQ (11745062_a_at) / Fold change /veh IRGQ (11745062_a_at) / RFU FAM174B (11720279_a_at) / Fold change /veh FAM174B (11720279_a_at) / RFU TMPRSS4 (11748680_a_at) / Fold change /veh TMPRSS4 (11748680_a_at) / RFU FAM212B (11763350_a_at) / Fold change /veh FAM212B (11763350_a_at) / RFU PLEKHG5 (11743358_a_at) / Fold change /veh PLEKHG5 (11743358_a_at) / RFU ZSCAN30 (11745921_a_at) / Fold change /veh ZSCAN30 (11745921_a_at) / RFU CMKLR1 (11741424_a_at) / Fold change /veh CMKLR1 (11741424_a_at) / RFU LOC101060620 /// MAPK8IP1 (11723275_at) / Fold change /veh LOC101060620 /// MAPK8IP1 (11723275_at) / RFU SPTSSB (11747773_x_at) / Fold change /veh SPTSSB (11747773_x_at) / RFU PRSS12 (11739890_at) / Fold change /veh PRSS12 (11739890_at) / RFU BIN1 (11741810_x_at) / Fold change /veh BIN1 (11741810_x_at) / RFU WNT11 (11732464_a_at) / Fold change /veh WNT11 (11732464_a_at) / RFU C10orf10 (11716521_a_at) / Fold change /veh C10orf10 (11716521_a_at) / RFU C5orf56 (11738089_at) / Fold change /veh C5orf56 (11738089_at) / RFU CYB561 (11721691_x_at) / Fold change /veh CYB561 (11721691_x_at) / RFU ANKRD19P (11752326_a_at) / Fold change /veh ANKRD19P (11752326_a_at) / RFU OR2T12 /// OR2T33 /// OR2T8 (11738714_s_at) / Fold change /veh OR2T12 /// OR2T33 /// OR2T8 (11738714_s_at) / RFU VCAN (11748164_a_at) / Fold change /veh VCAN (11748164_a_at) / RFU JSRP1 (11732532_at) / Fold change /veh JSRP1 (11732532_at) / RFU KRTAP10-11 (11738290_x_at) / Fold change /veh KRTAP10-11 (11738290_x_at) / RFU MYO3A (11730013_a_at) / Fold change /veh MYO3A (11730013_a_at) / RFU EBF3 (11725865_a_at) / Fold change /veh EBF3 (11725865_a_at) / RFU CAMK2N1 (11719241_x_at) / Fold change /veh CAMK2N1 (11719241_x_at) / RFU C5orf56 (11738088_a_at) / Fold change /veh C5orf56 (11738088_a_at) / RFU OLFML3 (11715873_a_at) / Fold change /veh OLFML3 (11715873_a_at) / RFU LOC100653217 /// NTM (11731650_a_at) / Fold change /veh LOC100653217 /// NTM (11731650_a_at) / RFU MAPK11 (11762145_a_at) / Fold change /veh MAPK11 (11762145_a_at) / RFU FIZ1 (11724087_x_at) / Fold change /veh FIZ1 (11724087_x_at) / RFU OASL (11726364_x_at) / Fold change /veh OASL (11726364_x_at) / RFU SOX15 (11748057_x_at) / Fold change /veh SOX15 (11748057_x_at) / RFU CD79A (11719716_a_at) / Fold change /veh CD79A (11719716_a_at) / RFU HIST1H1D (11736915_at) / Fold change /veh HIST1H1D (11736915_at) / RFU CASKIN2 (11723855_a_at) / Fold change /veh CASKIN2 (11723855_a_at) / RFU LOC730098 (11760151_x_at) / Fold change /veh LOC730098 (11760151_x_at) / RFU OR4N2 (11742367_at) / Fold change /veh OR4N2 (11742367_at) / RFU PRRT2 (11749266_a_at) / Fold change /veh PRRT2 (11749266_a_at) / RFU SNX32 (11753110_a_at) / Fold change /veh SNX32 (11753110_a_at) / RFU CDHR5 (11726645_a_at) / Fold change /veh CDHR5 (11726645_a_at) / RFU RCAN1 (11760418_a_at) / Fold change /veh RCAN1 (11760418_a_at) / RFU FAM167A (11723789_a_at) / Fold change /veh FAM167A (11723789_a_at) / RFU FAM26E (11764081_at) / Fold change /veh FAM26E (11764081_at) / RFU ISYNA1 (11749810_s_at) / Fold change /veh ISYNA1 (11749810_s_at) / RFU ACY1 (11761880_at) / Fold change /veh ACY1 (11761880_at) / RFU 11764098_at / Fold change /veh 11764098_at / RFU SAMD14 (11745864_x_at) / Fold change /veh SAMD14 (11745864_x_at) / RFU NPB (11741838_a_at) / Fold change /veh NPB (11741838_a_at) / RFU TMPRSS6 (11731388_a_at) / Fold change /veh TMPRSS6 (11731388_a_at) / RFU KRTAP10-2 (11738614_at) / Fold change /veh KRTAP10-2 (11738614_at) / RFU ARHGAP8 /// PRR5-ARHGAP8 (11727945_x_at) / Fold change /veh ARHGAP8 /// PRR5-ARHGAP8 (11727945_x_at) / RFU KRTAP5-7 /// NADSYN1 (11734609_at) / Fold change /veh KRTAP5-7 /// NADSYN1 (11734609_at) / RFU RASL12 (11751679_a_at) / Fold change /veh RASL12 (11751679_a_at) / RFU CDKN2B (11736163_a_at) / Fold change /veh CDKN2B (11736163_a_at) / RFU PRF1 (11729649_at) / Fold change /veh PRF1 (11729649_at) / RFU, ZNF638 /// ZNF638-IT1 / Fold change vs veh, ZNF638 /// ZNF638-IT1 / RFU, PANK3 / Fold change vs veh, PANK3 / RFU, SH3YL1 / Fold change vs veh, SH3YL1 / RFU, ZEB2 / Fold change vs veh, ZEB2 / RFU, NRIP1 / Fold change vs veh, NRIP1 / RFU, PTTG1IP / Fold change vs veh, PTTG1IP / RFU, CAPN2 / Fold change vs veh, CAPN2 / RFU, MED14 / Fold change vs veh, MED14 / RFU, SNORA58 / Fold change vs veh, SNORA58 / RFU, C1orf63 / Fold change vs veh, C1orf63 / RFU, LRRFIP1 / Fold change vs veh, LRRFIP1 / RFU, NDUFAF7 / Fold change vs veh, NDUFAF7 / RFU, SLC12A2 / Fold change vs veh, SLC12A2 / RFU, IBTK / Fold change vs veh, IBTK / RFU, ESF1 / Fold change vs veh, ESF1 / Fold change vs veh, TMEM50B / RFU, TAOK1 / Fold change vs veh, TAOK1 / RFU, ACBD3 / Fold change vs veh, ACBD3 / RFU, TMA16 / Fold change vs veh, TMA16 / RFU, RWDD3 / Fold change vs veh, RWDD3 / RFU, BCAT1 / Fold change vs veh, BCAT1 / RFU, EDEM3 / Fold change vs veh, EDEM3 / RFU, TMEM33 / Fold change vs veh, TMEM33 / RFU, WDR75 / Fold change vs veh, WDR75 / RFU, AHCTF1 / Fold change vs veh, AHCTF1 / RFU, TFRC / Fold change vs veh, TFRC / RFU, ZDHHC17 / Fold change vs veh, ZDHHC17 / RFU, NOM1 / Fold change vs veh, NOM1 / RFU, ARL8B / Fold change vs veh, ARL8B / RFU, ZBTB11 / Fold change vs veh, ZBTB11 / RFU, TAMM41 / Fold change vs veh, TAMM41 / RFU, KIAA1704 /// LOC100996395 / Fold change vs veh, KIAA1704 /// LOC100996395 / RFU, ING1 / Fold change vs veh, ING1 / RFU, TRMT61B / Fold change vs veh, TRMT61B / RFU, FUBP3 / Fold change vs veh, FUBP3 / RFU, TP53 / Fold change vs veh, TP53 / RFU, TNKS2 / Fold change vs veh, TNKS2 / RFU, ZFP14 / Fold change vs veh, ZFP14 / RFU, ACTR2 / Fold change vs veh, ACTR2 / RFU, PPP3R1 / Fold change vs veh, PPP3R1 / RFU, PIK3R1 / Fold change vs veh, PIK3R1 / RFU, HNRNPA1 / Fold change vs veh, HNRNPA1 / RFU, RNF170 / Fold change vs veh, RNF170 / RFU, ZNF28 / Fold change vs veh, ZNF28 / RFU, RNGTT / Fold change vs veh, RNGTT / RFU, OGT / Fold change vs veh, OGT / RFU, BRD1 / Fold change vs veh, BRD1 / RFU, MARS / Fold change vs veh, MARS / RFU, ZNF655 / Fold change vs veh, ZNF655 / RFU, FAHD1 / Fold change vs veh, FAHD1 / RFU, BDP1 / Fold change vs veh, BDP1 / RFU, LRRCC1 / Fold change vs veh, LRRCC1 / RFU, ARID1A / Fold change vs veh, ARID1A / RFU, ZNF146 / Fold change vs veh, ZNF146 / RFU, ZNF330 / Fold change vs veh, ZNF330 / RFU, GPN3 / Fold change vs veh, GPN3 / RFU, C9orf123 / Fold change vs veh, C9orf123 / RFU, N4BP2L2 / Fold change vs veh, N4BP2L2 / RFU, ARFIP1 / Fold change vs veh, ARFIP1 / RFU, FAM179B / Fold change vs veh, FAM179B / RFU, BCL10 / Fold change vs veh, BCL10 / RFU, UHRF1BP1L / Fold change vs veh, UHRF1BP1L / RFU, BET1 / Fold change vs veh, BET1 / RFU, CNOT2 / Fold change vs veh, CNOT2 / RFU, ZNF268 / Fold change vs veh, ZNF268 / Fold change vs veh, ZNF507 / RFU, DGCR2 / Fold change vs veh, DGCR2 / RFU, WDSUB1 / Fold change vs veh, WDSUB1 / Fold change vs veh, HSP90B1 /// MIR3652 / RFU, ADSS / Fold change vs veh, ADSS / RFU, GK / Fold change vs veh, GK / RFU, ZNF148 / Fold change vs veh, ZNF148 / RFU, TAF9 / Fold change vs veh, TAF9 / RFU, SLC1A5 / Fold change vs veh, SLC1A5 / RFU, SLMO2 / Fold change vs veh, SLMO2 / RFU, ABCC4 / Fold change vs veh, ABCC4 / RFU, LOC101060439 /// RAP1B / Fold change vs veh, LOC101060439 /// RAP1B / RFU, RFX7 / Fold change vs veh, RFX7 / RFU, GTPBP10 / Fold change vs veh, GTPBP10 / RFU, CNEP1R1 / Fold change vs veh, CNEP1R1 / RFU, BIVM-ERCC5 /// ERCC5 / Fold change vs veh, BIVM-ERCC5 /// ERCC5 / RFU, ILF3 / Fold change vs veh, ILF3 / RFU 11762660_at / Fold change /veh 11762660_at / RFU VCAN (11757783_s_at) / Fold change /veh VCAN (11757783_s_at) / RFU DDX43 (11728927_at) / Fold change /veh DDX43 (11728927_at) / RFU KRT8 (11758188_x_at) / Fold change /veh KRT8 (11758188_x_at) / RFU NKD1 (11759106_at) / Fold change /veh NKD1 (11759106_at) / RFU SRD5A1 (11742802_a_at) / Fold change /veh SRD5A1 (11742802_a_at) / RFU TPSAB1 /// TPSB2 (11721975_s_at) / Fold change /veh TPSAB1 /// TPSB2 (11721975_s_at) / RFU GSTM3 (11746129_a_at) / Fold change /veh GSTM3 (11746129_a_at) / RFU IL23R (11737362_x_at) / Fold change /veh IL23R (11737362_x_at) / RFU TMEM51 (11727254_a_at) / Fold change /veh TMEM51 (11727254_a_at) / RFU PIWIL2 (11732686_x_at) / Fold change /veh PIWIL2 (11732686_x_at) / RFU ORM1 (11744905_x_at) / Fold change /veh ORM1 (11744905_x_at) / RFU CCDC152 (11743942_at) / Fold change /veh CCDC152 (11743942_at) / RFU ECM1 (11717891_a_at) / Fold change /veh ECM1 (11717891_a_at) / RFU IL23R (11748794_a_at) / Fold change /veh IL23R (11748794_a_at) / RFU TNFAIP8L3 (11732012_x_at) / Fold change /veh TNFAIP8L3 (11732012_x_at) / RFU MBOAT4 (11741988_at) / Fold change /veh MBOAT4 (11741988_at) / RFU 11764193_at / Fold change /veh 11764193_at / RFU TMEM53 (11763286_at) / Fold change /veh TMEM53 (11763286_at) / RFU MAGEB2 (11727129_at) / Fold change /veh MAGEB2 (11727129_at) / RFU TMEM200A (11744735_a_at) / Fold change /veh TMEM200A (11744735_a_at) / RFU CCDC152 (11751479_a_at) / Fold change /veh CCDC152 (11751479_a_at) / RFU FAM211A (11726209_a_at) / Fold change /veh FAM211A (11726209_a_at) / RFU RGS16 (11746705_a_at) / Fold change /veh RGS16 (11746705_a_at) / RFU VCAN (11755009_s_at) / Fold change /veh VCAN (11755009_s_at) / RFU RHOB (11743442_s_at) / Fold change /veh RHOB (11743442_s_at) / RFU RGS16 (11720943_a_at) / Fold change /veh RGS16 (11720943_a_at) / RFU RGS16 (11720944_at) / Fold change /veh RGS16 (11720944_at) / RFU, VPS4B / Fold change vs veh, VPS4B / RFU, CREB1 / Fold change vs veh, CREB1 / RFU, DNAJC13 / Fold change vs veh, DNAJC13 / RFU, GNAQ / Fold change vs veh, GNAQ / RFU, CDK5R1 / Fold change vs veh, CDK5R1 / RFU, ZRANB3 / Fold change vs veh, ZRANB3 / RFU, CUL4A / Fold change vs veh, CUL4A / RFU, CCNY / Fold change vs veh, CCNY / RFU, UFL1 / Fold change vs veh, UFL1 / RFU, COG3 / Fold change vs veh, COG3 / RFU, DIAPH2 / Fold change vs veh, DIAPH2 / RFU, SKA2 / Fold change vs veh, SKA2 / RFU, AFF3 / Fold change vs veh, AFF3 / RFU, LMF1 / Fold change vs veh, LMF1 / RFU, IPO11 / Fold change vs veh, IPO11 / RFU, DFFB / Fold change vs veh, DFFB / RFU, FOXP1 / Fold change vs veh, FOXP1 / RFU, CARD8 / Fold change vs veh, CARD8 / RFU, STRN3 / Fold change vs veh, STRN3 / RFU, ADK / Fold change vs veh, ADK / RFU, RASSF2 / Fold change vs veh, RASSF2 / RFU, WIPF1 / Fold change vs veh, WIPF1 / RFU, LARP1B / Fold change vs veh, LARP1B / RFU, RASA1 / Fold change vs veh, RASA1 / RFU, RB1 / Fold change vs veh, RB1 / RFU, PPFIA1 / Fold change vs veh, PPFIA1 / RFU, MAT2A / Fold change vs veh, MAT2A / RFU, CCT5 / Fold change vs veh, CCT5 / RFU, WDR92 / Fold change vs veh, WDR92 / RFU, CUX1 / Fold change vs veh, CUX1 / RFU, TTC7A / Fold change vs veh, TTC7A / RFU, TMEM135 / Fold change vs veh, TMEM135 / RFU, DEPTOR / Fold change vs veh, DEPTOR / RFU, CPM / Fold change vs veh, CPM / RFU, DNAJB6 / Fold change vs veh, DNAJB6 / RFU, CACNA2D3 / Fold change vs veh, CACNA2D3 / RFU, DTX4 / Fold change vs veh, DTX4 / RFU, TFCP2 / Fold change vs veh, TFCP2 / RFU, GMCL1 /// GMCL1P1 / Fold change vs veh, GMCL1 /// GMCL1P1 / RFU, AEBP2 / Fold change vs veh, AEBP2 / RFU, SNHG1 /// SNORD22 /// SNORD25 /// SNORD26 /// SNORD27 /// SNORD28 /// SNORD29 /// SNORD31 / Fold change vs veh, SNHG1 /// SNORD22 /// SNORD25 /// SNORD26 /// SNORD27 /// SNORD28 /// SNORD29 /// SNORD31 / Fold change (Aza/veh), C12orf56 (ProbeSet 11735607_a_at) / Fold change (ACY-1035/veh), C12orf56 (ProbeSet 11735607_a_at) / Fold change (Aza/veh), FGFR1OP (ProbeSet 11751329_s_at) / Fold change (ACY-1035/veh), FGFR1OP (ProbeSet 11751329_s_at) / Fold change (Aza/veh), VPS36 (ProbeSet 11739960_a_at) / Fold change (ACY-1035/veh), VPS36 (ProbeSet 11739960_a_at) / RFU SYPL1 (11715823_x_at) / Fold change /veh SYPL1 (11715823_x_at) / RFU IGFBP7 (11715501_s_at) / Fold change /veh IGFBP7 (11715501_s_at) / RFU REEP3 (11722064_at) / Fold change /veh REEP3 (11722064_at) / RFU IGLL1 (11728026_x_at) / Fold change /veh IGLL1 (11728026_x_at): dose or concentration left out as unconfirmed
# Settings: MV-4-11 cells, 48 hours
smiles,measurement,value
Nc1ccc(-c2cccs2)cc1NC(=O)c1ccc2c(c1)cc(C1CC1)n2CCN1CCOCC1 [ACY-1035],RFU ORM1 (11744905_x_at),9.21 RFU
